Laboratory results from publication PMC9646747, “An allosteric modulator activates BK channels by perturbing coupling between Ca^2+ binding and pore opening” (Nature Communications, 2022).

Target: T1, BK channel (Slo1, mslo1 mbr5 splice variant) (Mus musculus, UniProt Q08460)
T1 construct: gene Kcnma1; mbr5 splice variant of mslo1
Assay: inside-out patch-clamp of channels expressed in Xenopus oocytes (GV shift dose response; also outward-current block, IC50 […]), supported by mutagenesis
Format: cell-based

For `COc1cc(NC(=O)[C@@H](N)CCCNC(=N)N)cc2ccccc12` [BC5], the EC50 was 2500 ± 300 nM.
